# Results: ChEMBL document CHEMBL1201862, “PubChem BioAssay data set” (2004)
#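 Each compound was tested at five concentrations against cells in 96-well plates for 48 hours. Here, GI50 denotes the concentration required for 50% inhibition of growth.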 Calls of active or inactive are those of the source. No stated cut-off is given here; in the data, active = GI50 up to about 1.1 µM and inactive = higher.
# How the values were obtained:
# Experiment in all cases: NCI tumour cell line growth inhibition, 48 h
# SN12C = tested on: SN12C
# DMS-114 = tested on: DMS-114
# UACC-257 = tested on: UACC-257
# HCT-116 = tested on: HCT-116
# ACHN = tested on: ACHN
# 786-0 = tested on: 786-0
# M19-MEL = tested on: M19-MEL
# TK-10 = tested on: TK-10
# K562 = tested on: K562
# M14 = tested on: M14
# RXF 393 = tested on: RXF 393
# U-251 = tested on: U-251
# UACC-62 = tested on: UACC-62
# HT-29 = tested on: HT-29
# Malme-3M = tested on: Malme-3M
# NCI-H522 = tested on: NCI-H522
# UO-31 = tested on: UO-31
# A549 = tested on: A549
# RPMI-8226 = tested on: RPMI-8226
# SK-MEL-2 = tested on: SK-MEL-2
# DMS-273 = tested on: DMS-273
# SK-OV-3 = tested on: SK-OV-3
# SNB-78 = tested on: SNB-78
# KM-20L2 = tested on: KM-20L2
# SNB-19 = tested on: SNB-19
# OVCAR-5 = tested on: OVCAR-5
# DLD-1 = tested on: DLD-1
# SR = tested on: SR
# KM12 = tested on: KM12
# XF498 = tested on: XF498
# IGROV-1 = tested on: IGROV-1
# HCT-15 = tested on: HCT-15
# SW-620 = tested on: SW-620
# HOP-18 = tested on: HOP-18
# OVCAR-4 = tested on: OVCAR-4
# SF-268 = tested on: SF-268
# SK-MEL-28 = tested on: SK-MEL-28
# A498 = tested on: A498
# NCI-H226 = tested on: NCI-H226
# OVCAR-3 = tested on: OVCAR-3
# NCI-H460 = tested on: NCI-H460
# SNB-75 = tested on: SNB-75
# HOP-62 = tested on: HOP-62
# RXF 631 = tested on: RXF 631
# EKVX = tested on: EKVX
# CCRF-CEM = tested on: CCRF-CEM
# SF-295 = tested on: SF-295
# HL-60 = tested on: HL-60
# COLO 205 = tested on: COLO 205
# LOX IMVI = tested on: LOX IMVI
# CAKI-1 = tested on: CAKI-1
# HOP-92 = tested on: HOP-92
# SK-MEL-5 = tested on: SK-MEL-5
# OVCAR-8 = tested on: OVCAR-8
# LXFL 529 = tested on: LXFL 529
# MOLT-4 = tested on: MOLT-4
# HCC 2998 = tested on: HCC 2998
# NCI-H23 = tested on: NCI-H23
# SF-539 = tested on: SF-539
compound,measurement,setting,value
NCc1cc(O)c(O)c(O)c1,GI50,SN12C,> 100 µM (inactive)
same,GI50,DMS-114,> 100 µM (inactive)
same,GI50,UACC-257,> 100 µM (inactive)
same,GI50,HCT-116,63.5 µM (inactive)
same,GI50,ACHN,> 100 µM (inactive)
same,GI50,786-0,> 100 µM (inactive)
same,GI50,M19-MEL,80.4 µM (inactive)
same,GI50,TK-10,> 100 µM (inactive)
same,GI50,K562,43.1 µM (inactive)
same,GI50,M14,> 100 µM (inactive)
same,GI50,RXF 393,> 100 µM (inactive)
same,GI50,U-251,> 100 µM (inactive)
same,GI50,UACC-62,59.3 µM (inactive)
same,GI50,HT-29,> 100 µM (inactive)
same,GI50,Malme-3M,> 100 µM (inactive)
same,GI50,NCI-H522,> 100 µM (inactive)
same,GI50,UO-31,> 100 µM (inactive)
same,GI50,A549,> 100 µM (inactive)
same,GI50,RPMI-8226,33.7 µM (inactive)
same,GI50,SK-MEL-2,> 100 µM (inactive)
same,GI50,DMS-273,> 100 µM (inactive)
same,GI50,SK-OV-3,> 100 µM (inactive)
same,GI50,SNB-78,> 100 µM (inactive)
same,GI50,KM-20L2,> 100 µM (inactive)
same,GI50,SNB-19,> 100 µM (inactive)
same,GI50,OVCAR-5,> 100 µM (inactive)
same,GI50,DLD-1,> 100 µM (inactive)
same,GI50,SR,91.2 µM (inactive)
same,GI50,KM12,> 100 µM (inactive)
same,GI50,XF498,> 100 µM (inactive)
same,GI50,IGROV-1,> 100 µM (inactive)
same,GI50,HCT-15,> 100 µM
same,GI50,SW-620,> 100 µM (inactive)
same,GI50,HOP-18,> 100 µM (inactive)
same,GI50,OVCAR-4,> 100 µM (inactive)
same,GI50,SF-268,> 100 µM (inactive)
same,GI50,SK-MEL-28,> 100 µM (inactive)
same,GI50,A498,> 100 µM (inactive)
same,GI50,NCI-H226,> 100 µM (inactive)
same,GI50,OVCAR-3,> 100 µM (inactive)
same,GI50,NCI-H460,> 100 µM (inactive)
same,GI50,SNB-75,> 100 µM (inactive)
same,GI50,HOP-62,> 100 µM (inactive)
same,GI50,RXF 631,> 100 µM (inactive)
same,GI50,EKVX,> 100 µM (inactive)
same,GI50,CCRF-CEM,38.5 µM (inactive)
same,GI50,SF-295,> 100 µM (inactive)
same,GI50,HL-60,80.7 µM (inactive)
same,GI50,COLO 205,> 100 µM (inactive)
same,GI50,LOX IMVI,34.8 µM (inactive)
same,GI50,CAKI-1,> 100 µM (inactive)
same,GI50,HOP-92,> 100 µM (inactive)
same,GI50,SK-MEL-5,> 100 µM (inactive)
same,GI50,OVCAR-8,> 100 µM (inactive)
same,GI50,LXFL 529,> 100 µM (inactive)
same,GI50,MOLT-4,> 100 µM (inactive)
COc1ccc(C=C(c2ccc(OCc3ccccc3)cc2)c2ccc(OCc3ccccc3)cc2)cc1,GI50,SN12C,> 100 µM (inactive)
same,GI50,DMS-114,> 100 µM (inactive)
same,GI50,UACC-257,> 100 µM (inactive)
same,GI50,HCC 2998,> 100 µM (inactive)
same,GI50,ACHN,> 100 µM (inactive)
same,GI50,786-0,> 100 µM (inactive)
same,GI50,M19-MEL,> 100 µM (inactive)
same,GI50,TK-10,> 100 µM (inactive)
same,GI50,M14,> 100 µM (inactive)
same,GI50,RXF 393,> 100 µM (inactive)
same,GI50,U-251,> 100 µM (inactive)
same,GI50,UACC-62,> 100 µM (inactive)
same,GI50,HT-29,> 100 µM (inactive)
same,GI50,Malme-3M,> 100 µM (inactive)
same,GI50,NCI-H522,> 100 µM (inactive)
same,GI50,UO-31,> 100 µM (inactive)
same,GI50,A549,> 100 µM (inactive)
same,GI50,RPMI-8226,> 100 µM (inactive)
same,GI50,SK-MEL-2,> 100 µM (inactive)
same,GI50,DMS-273,> 100 µM (inactive)
same,GI50,SK-OV-3,> 100 µM (inactive)
same,GI50,SNB-78,> 100 µM (inactive)
same,GI50,KM-20L2,> 100 µM (inactive)
same,GI50,SNB-19,> 100 µM (inactive)
same,GI50,OVCAR-5,> 100 µM (inactive)
same,GI50,DLD-1,> 100 µM (inactive)
same,GI50,SR,> 100 µM (inactive)
same,GI50,KM12,> 100 µM (inactive)
same,GI50,XF498,> 100 µM (inactive)
same,GI50,IGROV-1,> 100 µM (inactive)
same,GI50,HCT-15,> 100 µM
same,GI50,SW-620,> 100 µM (inactive)
same,GI50,HOP-18,> 100 µM (inactive)
same,GI50,OVCAR-4,> 100 µM (inactive)
same,GI50,SF-268,> 100 µM (inactive)
same,GI50,SK-MEL-28,> 100 µM (inactive)
same,GI50,NCI-H23,> 100 µM (inactive)
same,GI50,NCI-H226,> 100 µM (inactive)
same,GI50,OVCAR-3,> 100 µM (inactive)
same,GI50,NCI-H460,> 100 µM (inactive)
same,GI50,SNB-75,> 100 µM (inactive)
same,GI50,HOP-62,> 100 µM (inactive)
same,GI50,RXF 631,> 100 µM (inactive)
same,GI50,SF-539,> 100 µM (inactive)
same,GI50,EKVX,> 100 µM (inactive)
same,GI50,SF-295,> 100 µM (inactive)
same,GI50,HL-60,> 100 µM (inactive)
same,GI50,COLO 205,> 100 µM (inactive)
same,GI50,LOX IMVI,> 100 µM (inactive)
same,GI50,CAKI-1,> 100 µM (inactive)
same,GI50,SK-MEL-5,> 100 µM (inactive)
same,GI50,OVCAR-8,> 100 µM (inactive)
same,GI50,LXFL 529,> 100 µM (inactive)
